Results published in ChEMBL document CHEMBL1129258, “Synthesis and structure-activity relationships of 2-pyridones: a novel series of potent DNA gyrase inhibitors as antibacterial agents” (J Med Chem, 1996).
Converted amounts (≈) assume the structure as drawn.

Key:
[1] = biological target: T1, DNA gyrase (Escherichia coli) (UniProt P0AES6+P0AES4); test: In vitro antibacterial against gram-negative organism Escherichia coli JUHL; assay type: functional; details: Escherichia coli K-12
[2] = biological target: T1, DNA gyrase (Escherichia coli); details: Escherichia coli K-12
Description: Concentration which causes 50% of the gyrase (Escherichia coli H560)-mediated maximal DNA cleavage.

Pseudomonas aeruginosa [3] = test: In vivo efficacy against Pseudomonas aeruginosa 5007 following p.o. administration.
[4] = biological target: T1, DNA gyrase (Escherichia coli); test: In vitro antibacterial activity against gram-negative organism […] ATCC 13048; assay type: functional; details: Enterobacter aerogenes
[5] = (§1) In vitro antibacterial activity against gram-negative organism Pseudomonas aeruginosa 5007; assay type: functional; details: Pseudomonas aeruginosa; read-out: MIC
[6] = biological target: T2, DNA gyrase (Staphylococcus aureus) (UniProt P0A0K8+P20831); test: (§2) In vivo efficacy against Staphylococcus aureus NCTC-10649M after subcutaneous administration; assay type: functional, organism-based
[7] = biological target: T1, DNA gyrase (Escherichia coli); test: In vitro antibacterial activity against gram-negative organism Klebsiella pneumoniae ATCC 8045; assay type: functional
[8] = biological target: T1, DNA gyrase (Escherichia coli); test: In vitro antibacterial activity against gram-negative organism Prov. stuartii CMX-640; assay type: functional; details: Providencia stuartii
[9] = biological target: T2, DNA gyrase (Staphylococcus aureus); test: In vitro antibacterial activity against gram-positive organism Staphylococcus aureus NCTC-10649M; assay type: functional
[10] = biological target: T1, DNA gyrase (Escherichia coli); test: In vivo efficacy against Escherichia coli JUHL by subcutaneous administration; assay type: functional, organism-based; details: Escherichia coli K-12
[11] = biological target: T1, DNA gyrase (Escherichia coli); test: In vitro antibacterial activity against gram-positive organism Enterococcus faecium ATCC 8043; assay type: functional
Staphylococcus aureus [12] = test: (§3) In vivo efficacy against Staphylococcus aureus NCTC-10649M after oral administration; assay type: functional
[13] = biological target: T1, DNA gyrase (Escherichia coli); test: In vivo efficacy against Escherichia coli JUHL after oral administration; assay type: functional, organism-based; details: Escherichia coli K-12
Streptococcus pyogenes = test: In vitro antibacterial activity against gram-positive organism Streptococcus pyogenes EES61; assay type: functional; details: Streptococcus pyogenes; read-out: MIC
[14] = biological target: T2, DNA gyrase (Staphylococcus aureus); test: In vitro antibacterial activity against gram-positive organism Staphylococcus aureus 1775; assay type: functional
[15] = In vivo efficacy against Pseudomonas aeruginosa 5007 after subcutaneous administration; assay type: functional
[16] = In vitro antibacterial activity against gram-negative organism Pseudomonas aeruginosa DPHD-2862; assay type: functional; details: Pseudomonas aeruginosa; read-out: MIC
[17] = biological target: T1, DNA gyrase (Escherichia coli); test: In vitro antibacterial activity against gram-positive organism Streptococcus bovis A-5169; assay type: functional; details: Streptococcus equinus
[18] = biological target: T2, DNA gyrase (Staphylococcus aureus); test: In vitro antibacterial activity against gram-positive organism Staphylococcus aureus ATCC 6538p; assay type: functional
Streptococcus pneumoniae [19] = test: (§4) In vivo efficacy against Strep. administration; assay type: functional
[20] = biological target: T2, DNA gyrase (Staphylococcus aureus); test: as §3; assay type: functional, organism-based
Streptococcus equinus = test: In vitro antibacterial activity against gram-positive organism Strep. bovis A-5169; assay type: functional
in vivo [21] = details: rat, plasma, po, 5 mg/kg
Streptococcus pneumoniae [22] = test: as §4; assay type: functional; remark: listed apart in the source
in vivo [23] = details: rat, po, 5 mg/kg
Description: Oral bioavailability in rat (dose 5 mg/kg)

[24] = Maximum plasma concentration in rats after an oral dose of 5 mg/kg; details: rat
Streptococcus pneumoniae [25] = test: as §4; assay type: functional; remark: listed apart in the source
Staphylococcus aureus [26] = test: as §2; assay type: functional; details: sc
Pseudomonas aeruginosa [27] = test: In vivo efficacy against Pseudomonas aeruginosa 5007 by orally administered.; assay type: functional; details: Pseudomonas aeruginosa, po; read-out: ED50
Streptococcus pneumoniae [28] = test: In vivo efficacy against Strep. administered; assay type: functional; details: Streptococcus pneumoniae; read-out: ED50
in vivo [29] = details: rat, plasma, po, 5 mg/kg; remark: listed apart in the source
Pseudomonas aeruginosa [30] = test: as §1; assay type: functional
Enterococcus faecium = test: In vitro antibacterial activity against gram-positive organism Enterococcus faecium ATCC 8043
physchem = details: phosphate buffer, pH 7.4
Description: Aqueous solubility in pH 7.4 phosphate buffer (0.05 M) at 37 degree C

Pseudomonas aeruginosa [31] = test: In vivo efficacy against Pseudomonas aeruginosa 5007 by subcutaneously administered.; assay type: functional; details: sc
Staphylococcus aureus [32] = test: In vivo efficacy against Staphylococcus aureus NCTC-10649M by subcutaneously administered.; assay type: functional
Escherichia coli [33] = test: In vivo efficacy against Escherichia coli JUHL by subcutaneously administered.; assay type: functional; details: sc
Streptococcus pneumoniae [34] = test: In vivo efficacy against Stap. administered.; assay type: functional
Staphylococcus aureus [35] = test: In vivo efficacy against Staphylococcus aureus NCTC-10649M by orally administered.; assay type: functional
Escherichia coli [36] = test: In vivo efficacy against Escherichia coli JUHL by orally administered.; assay type: functional; details: po
[37] = Pseudomonas aeruginosa, sc, read-out: ED50
[38] = Streptococcus pneumoniae, read-out: ED50

T2 sequence (P0A0K8 2-644 limits assumed): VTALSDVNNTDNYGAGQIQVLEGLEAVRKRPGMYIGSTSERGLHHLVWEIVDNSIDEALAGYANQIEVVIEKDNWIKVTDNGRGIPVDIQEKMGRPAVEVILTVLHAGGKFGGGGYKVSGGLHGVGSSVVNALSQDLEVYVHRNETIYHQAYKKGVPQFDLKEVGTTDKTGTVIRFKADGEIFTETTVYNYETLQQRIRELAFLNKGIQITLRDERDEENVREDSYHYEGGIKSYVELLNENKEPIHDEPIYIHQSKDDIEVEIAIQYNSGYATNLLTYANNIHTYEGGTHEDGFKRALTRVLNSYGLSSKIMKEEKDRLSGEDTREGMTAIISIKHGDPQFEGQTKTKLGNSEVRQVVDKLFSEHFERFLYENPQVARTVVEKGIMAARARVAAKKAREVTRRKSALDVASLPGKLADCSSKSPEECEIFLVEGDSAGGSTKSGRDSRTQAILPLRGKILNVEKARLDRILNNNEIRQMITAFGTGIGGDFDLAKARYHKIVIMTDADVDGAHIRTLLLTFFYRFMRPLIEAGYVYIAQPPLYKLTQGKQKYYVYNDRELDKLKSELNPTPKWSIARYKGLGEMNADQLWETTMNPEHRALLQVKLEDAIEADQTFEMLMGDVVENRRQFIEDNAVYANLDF
T2 sequence (P20831 whole entry partner): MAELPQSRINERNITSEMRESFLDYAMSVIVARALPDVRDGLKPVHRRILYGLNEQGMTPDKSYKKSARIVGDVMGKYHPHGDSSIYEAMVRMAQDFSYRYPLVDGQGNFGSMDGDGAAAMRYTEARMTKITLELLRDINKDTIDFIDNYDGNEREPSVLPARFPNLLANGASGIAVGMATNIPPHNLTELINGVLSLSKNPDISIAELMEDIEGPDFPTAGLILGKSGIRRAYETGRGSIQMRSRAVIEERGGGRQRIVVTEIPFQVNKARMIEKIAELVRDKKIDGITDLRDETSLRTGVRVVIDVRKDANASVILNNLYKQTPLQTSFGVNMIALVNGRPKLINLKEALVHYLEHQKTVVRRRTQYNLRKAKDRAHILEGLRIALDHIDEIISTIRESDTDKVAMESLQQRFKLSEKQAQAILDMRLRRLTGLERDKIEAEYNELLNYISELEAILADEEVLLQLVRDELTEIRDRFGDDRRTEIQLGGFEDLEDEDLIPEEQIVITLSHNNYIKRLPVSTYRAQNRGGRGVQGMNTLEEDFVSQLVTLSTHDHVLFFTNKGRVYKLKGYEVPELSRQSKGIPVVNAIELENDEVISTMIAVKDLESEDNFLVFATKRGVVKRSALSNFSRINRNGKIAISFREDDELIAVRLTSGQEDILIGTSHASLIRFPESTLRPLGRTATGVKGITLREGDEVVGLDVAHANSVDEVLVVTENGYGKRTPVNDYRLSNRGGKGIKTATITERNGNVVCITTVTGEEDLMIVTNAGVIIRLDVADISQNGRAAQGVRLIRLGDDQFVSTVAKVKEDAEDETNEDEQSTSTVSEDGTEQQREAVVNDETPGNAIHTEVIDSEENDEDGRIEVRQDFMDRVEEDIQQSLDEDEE

SMILES | MIC [1] [µg/mL] | CC50 [2] [µg/mL] | ED50 (Pseudomonas aeruginosa [3]) [mg/kg] | MIC [4] [µg/mL] | MIC [5] [µg/mL] | ED50 [6] [mg/kg] | MIC [7] [µg/mL] | MIC [8] | MIC [9] [µg/mL] | ED50 [10] [mg/kg] | MIC [11] [µg/mL] | ED50 [13] [mg/kg] | MIC (Streptococcus pyogenes) [µg/mL] | MIC [14] [µg/mL] | ED50 [15, 37] [mg/kg] | MIC [16] [µg/mL] | MIC [17] [µg/mL] | MIC [18] [µg/mL] | ED50 [20] [mg/kg] | bioavailability (in vivo [23]) [%] | further results
Cc1c(N2CC[C@@H]([C@@H](C)N)C2)c(F)cn2c(=O)c(C(=O)O)cc(C3CC3)c12 | 0.001 (≈ 0.00268 µM) | 0.4 (≈ 1.07 µM) | 24.4 | 0.01 (≈ 0.0268 µM) | 0.2 (≈ 0.536 µM) | < 0.2 | 0.001 (≈ 0.00268 µM) | 0.78 pug ml-1 | 0.002 (≈ 0.00536 µM) | 0.5 | 0.01 (≈ 0.0268 µM) | 5.7 | 0.005 (≈ 0.0134 µM) | 0.39 (≈ 1.04 µM) | 5.4 | 6.2 (≈ 16.6 µM) | 0.01 (≈ 0.0268 µM) | 0.002 (≈ 0.00536 µM) | – | – | ED50 (Staphylococcus aureus [12]): 1.1 mg/kg
Cc1c(N2CC[C@@H](O)C2)c(F)cn2c(=O)c(C(=O)O)cc(C3CC3)c12 | 0.1 (≈ 0.289 µM) | – | – | 0.2 (≈ 0.577 µM) | 0.78 (≈ 2.25 µM) | 6.1 | 0.02 (≈ 0.0577 µM) | 0.78 µg/mL (≈ 2.25 µM) | 0.02 (≈ 0.0577 µM) | – | 0.2 (≈ 0.577 µM) | – | – | 1.56 (≈ 4.5 µM) | – | 25 (≈ 72.2 µM) | – | 0.02 (≈ 0.0577 µM) | 11.2 | – | ED50 (Streptococcus pneumoniae [19]): > 2 mg/kg; MIC (Streptococcus equinus): 0.2 µg/mL (≈ 0.577 µM)
Cc1c(N2CCC(O)C2)c(F)cn2c(=O)c(C(=O)O)cc(C3CC3)c12 (configuration not stated) | 0.02 (≈ 0.0577 µM) | – | > 50 | 0.02 (≈ 0.0577 µM) | 0.2 (≈ 0.577 µM) | – | 0.02 (≈ 0.0577 µM) | 0.2 µg/mL (≈ 0.577 µM) | 0.005 (≈ 0.0144 µM) | > 1 | 0.05 (≈ 0.144 µM) | > 5 | 0.05 (≈ 0.144 µM) | 0.2 (≈ 0.577 µM) | > 8 | 6.2 (≈ 17.9 µM) | 0.05 (≈ 0.144 µM) | 0.01 (≈ 0.0289 µM) | 15.2 | 50 | half-life (in vivo [21]): 5.4 h; ED50 (Streptococcus pneumoniae [22]): 7.4 mg/kg; Cmax [24]: 1420 ng/mL; ED50 (Streptococcus pneumoniae [25]): 41.5 mg/kg; ED50 (Staphylococcus aureus [26]): 11.3 mg/kg
Cc1c(N2C[C@@H]3CCN[C@@H]3C2)c(F)cn2c(=O)c(C(=O)O)cc(C3CC3)c12 (stereo in doubt; 45o) | – | – | – | – | 0.39 (≈ 1.05 µM) | – | – | – | – | – | – | – | 0.05 (≈ 0.135 µM) | – | – | 6.2 (≈ 16.7 µM) | – | – | – | 62 | ED50 (Pseudomonas aeruginosa [27]): 39.9 mg/kg; ED50 (Streptococcus pneumoniae [28]): 4.5 mg/kg; half-life (in vivo [29]): 4.1 h; ED50 [15]: 6.4 mg/kg; Cmax [24]: 1130 ng/mL; ED50 (Streptococcus pneumoniae [25]; [38]): 7.6 mg/kg
Cc1c(N2CC[C@@]3(C[C@@H]3N)C2)c(F)cn2c(=O)c(C(=O)O)cc(C3CC3)c12 | 0.01 (≈ 0.0269 µM) | – | – | 0.05 (≈ 0.135 µM) | – | 1.2 | 0.005 (≈ 0.0135 µM) | 0.39 µg/mL (≈ 1.05 µM) | 0.02 (≈ 0.0538 µM) | – | 0.05 (≈ 0.135 µM) | – | 0.01 (≈ 0.0269 µM) | 0.39 (≈ 1.05 µM) | – | 3.1 (≈ 8.35 µM) | – | 0.002 (≈ 0.00538 µM) | – | – | MIC (Pseudomonas aeruginosa [30]): 0.39 µg/mL (≈ 1.05 µM); ED50 (Staphylococcus aureus [12]): 6.3 mg/kg
NC1CCN(c2nc3c(-c4ccc(F)cc4F)cc(C(=O)O)c(=O)n3cc2F)C1 (configuration not stated) | 0.02 (≈ 0.0495 µM) | 0.5 (≈ 1.24 µM) | 42.1 | 0.05 (≈ 0.124 µM) | 0.39 (≈ 0.965 µM) | 4.4 | 0.02 (≈ 0.0495 µM) | 1.56 µg/mL (≈ 3.86 µM) | 0.1 (≈ 0.247 µM) | 1 | – | 5.6 | 0.39 (≈ 0.965 µM) | > 100 | 10.3 | 100 (≈ 247 µM) | 1.56 (≈ 3.86 µM) | 0.1 (≈ 0.247 µM) | 12 | – | MIC (Enterococcus faecium): 0.78 µg/mL (≈ 1.93 µM)
Cc1c(N2CC[C@@H]3CNC[C@@H]32)c(F)cn2c(=O)c(C(=O)O)cc(C3CC3)c12 | 0.001 (≈ 0.00269 µM) | 0.4 (≈ 1.08 µM) | 42.8 | 0.05 (≈ 0.135 µM) | 0.39 (≈ 1.05 µM) | 1.8 | 0.02 (≈ 0.0538 µM) | 1.56 µg/mL (≈ 4.2 µM) | 0.05 (≈ 0.135 µM) | 1.1 | 0.1 (≈ 0.269 µM) | 3.6 | 0.1 (≈ 0.269 µM) | 6.2 (≈ 16.7 µM) | > 8 | 3.1 (≈ 8.35 µM) | 0.1 (≈ 0.269 µM) | 0.05 (≈ 0.135 µM) | 3.6 | 41 | ED50 (Streptococcus pneumoniae [28]): 6.4 mg/kg; half-life (in vivo [29]): 5.7 h; Cmax [24]: 330 ng/mL; ED50 (Streptococcus pneumoniae [25]; [38]): 9.5 mg/kg; solubility (physchem): 1940 µg/mL (≈ 5220 µM)
Cc1c(N2CCC(N)C2)c(F)cn2c(=O)c(/C(O)=C/[N+](=O)[O-])cc(C3CC3)c12 (configuration not stated) | 0.02 (≈ 0.0515 µM) | 3 (≈ 7.72 µM) | – | 0.1 (≈ 0.257 µM) | 0.39 (≈ 1 µM) | – | 0.02 (≈ 0.0515 µM) | 1.56 µg/mL (≈ 4.02 µM) | 0.1 (≈ 0.257 µM) | – | 0.39 (≈ 1 µM) | – | 0.2 (≈ 0.515 µM) | 6.2 (≈ 16 µM) | – | 6.2 (≈ 16 µM) | 0.2 (≈ 0.515 µM) | 0.05 (≈ 0.129 µM) | – | – | ED50 (Pseudomonas aeruginosa [31]): 3.2 mg/kg; ED50 (Staphylococcus aureus [32]): > 12 mg/kg; ED50 (Escherichia coli [33]): > 5 mg/kg; ED50 (Streptococcus pneumoniae [34]): > 8 mg/kg; ED50 (Staphylococcus aureus [35]): 25.2 mg/kg; ED50 (Escherichia coli [36]): > 10 mg/kg
